Laboratory results from PubChem BioAssay (NCI).
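A five-concentration, 48-hour dose response in 96-well plates underlies each endpoint, interpolated linearly between surrounding concentrations. Here, GI50 denotes the concentration required for 50% inhibition of growth. TGI denotes the concentration required for complete inhibition of growth.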

Key:
Test in all cases: growth of human tumour cells (NCI), 48 h
HCC-2998 colon = system: HCC-2998 colon
SNB-19 CNS = system: SNB-19 CNS
HCT-116 colon = system: HCT-116 colon
MDA-MB-435 = system: MDA-MB-435
OVCAR-3 ovarian = system: OVCAR-3 ovarian
SF-295 CNS = system: SF-295 CNS
MALME-3M melanoma = system: MALME-3M melanoma
SK-MEL-28 melanoma = system: SK-MEL-28 melanoma
CAKI-1 renal = system: CAKI-1 renal
U251 CNS = system: U251 CNS
HOP-92 NSCLC = system: HOP-92 NSCLC
IGROV1 ovarian = system: IGROV1 ovarian
LOX IMVI melanoma = system: LOX IMVI melanoma
NCI/ADR-RES ovarian = system: NCI/ADR-RES ovarian
SK-OV-3 ovarian = system: SK-OV-3 ovarian
HS 578T breast = system: HS 578T breast
MDA-MB-231 breast = system: MDA-MB-231 breast
NCI-H460 lung = system: NCI-H460 lung
SW-620 colon = system: SW-620 colon
OVCAR-5 ovarian = system: OVCAR-5 ovarian
M14 melanoma = system: M14 melanoma
EKVX NSCLC = system: EKVX NSCLC
NCI-H23 lung = system: NCI-H23 lung
SF-268 CNS = system: SF-268 CNS
786-0 renal = system: 786-0 renal
RXF 393 renal = system: RXF 393 renal
TK-10 renal = system: TK-10 renal
MOLT-4 leukemia = system: MOLT-4 leukemia

SMILES: Oc1ccc(-c2cn3ccsc3n2)cc1O
- GI50 (HCC-2998 colon): 78 µM
- TGI (HCC-2998 colon): > 100 µM
- GI50 (SNB-19 CNS): 49.9 µM
- TGI (SNB-19 CNS): > 100 µM
- GI50 (HCT-116 colon): 18.1 µM
- TGI (HCT-116 colon): 37.8 µM
- GI50 (MDA-MB-435): 22.1 µM
- TGI (MDA-MB-435): 47.8 µM
- GI50 (OVCAR-3 ovarian): 15.6 µM
- TGI (OVCAR-3 ovarian): 46.4 µM
- GI50 (SF-295 CNS): 69.6 µM
- TGI (SF-295 CNS): > 100 µM
- GI50 (MALME-3M melanoma): 30.8 µM
- TGI (MALME-3M melanoma): 84.4 µM
- GI50 (SK-MEL-28 melanoma): 32.9 µM
- TGI (SK-MEL-28 melanoma): > 100 µM
- GI50 (CAKI-1 renal): 26.3 µM
- TGI (CAKI-1 renal): > 100 µM
- GI50 (U251 CNS): 21.5 µM
- TGI (U251 CNS): 46.7 µM
- GI50 (HOP-92 NSCLC): 23 µM
- TGI (HOP-92 NSCLC): 78.5 µM
- GI50 (IGROV1 ovarian): 21.3 µM
- TGI (IGROV1 ovarian): > 100 µM
- GI50 (LOX IMVI melanoma): 18.1 µM
- TGI (LOX IMVI melanoma): 41.7 µM
- GI50 (NCI/ADR-RES ovarian): > 100 µM
- TGI (NCI/ADR-RES ovarian): > 100 µM
- GI50 (SK-OV-3 ovarian): > 100 µM
- TGI (SK-OV-3 ovarian): > 100 µM
- GI50 (HS 578T breast): 0.203 µM
- TGI (HS 578T breast): 22.4 µM
- GI50 (MDA-MB-231 breast): 17.6 µM
- TGI (MDA-MB-231 breast): 44.2 µM
- GI50 (NCI-H460 lung): 45.8 µM
- TGI (NCI-H460 lung): > 100 µM
- GI50 (SW-620 colon): 11.5 µM
- TGI (SW-620 colon): 70.5 µM
- GI50 (OVCAR-5 ovarian): 38.9 µM
- TGI (OVCAR-5 ovarian): > 100 µM
- GI50 (M14 melanoma): 26.1 µM
- TGI (M14 melanoma): 75.3 µM
- GI50 (EKVX NSCLC): 16.7 µM
- TGI (EKVX NSCLC): 38.9 µM
- GI50 (NCI-H23 lung): 46.3 µM
- TGI (NCI-H23 lung): > 100 µM
- GI50 (SF-268 CNS): 27.8 µM
- TGI (SF-268 CNS): > 100 µM
- GI50 (786-0 renal): 36.6 µM
- TGI (786-0 renal): > 100 µM
- GI50 (RXF 393 renal): 78 µM
- TGI (RXF 393 renal): > 100 µM
- GI50 (TK-10 renal): 63.1 µM
- TGI (TK-10 renal): > 100 µM
- GI50 (MOLT-4 leukemia): 11 µM
- TGI (MOLT-4 leukemia): 55.4 µM
